# Read-outs that look alike come from different tables or passages of the source.
# Assays:
# [1] = target: T1, mouse TSPO recombinant protein (TSPO proteoliposomes) (Mus musculus, UniProt P50637); test: SPR single-cycle kinetics on TSPO proteoliposomes; type: binding
# T1 construct: His tag; made in house; host or cells: Escherichia coli BL21(DE3) pLysS, pET15b vector
# Experimental: (§1) Cells of the BL21(DE3) pLysS Escherichia coli strain were transformed with the pET15b vector, from which the expression of mouse TSPO recombinant protein was induced by 1 mM isopropyl-1-thiol-β-D-galactopyranoside as previously described ([Robert and Lacapère, 2010]; [Senicourt et al., 2017]). Cells were harvested and resuspended in lysis buffer (150 mM NaCl and 50 mM HEPES-Na, pH 7.8) with the addition of 1 mg/ml lysozyme and sonicated thoroughly. The lysate was centrifuged at 15,000 g at 4°C for 20 min to pellet the insoluble inclusion bodies. The final pellet of inclusion bodies was solubilized in binding buffer (150 mM NaCl, 50 mM HEPES-Na, 1% SDS (wt/vol), pH 7.8) and was purified by the Ni-NTA gravity flow column.
# Proteoliposomes composed of DMPC/DMPE (9:1) and TSPO in a 5:1 (wt/wt) ratio were prepared using a previously described method ([Ostuni et al., 2010]). Liposomes composed of DMPC/DMPE (9:1) were prepared as published previously ([Hatty et al., 2014]). A few milligrams of DMPC and DMPE were weighed into a round-bottom glass flask, and chloroform and methanol were added to dissolve them. A thin lipid film was prepared by a rotary evaporator and dried under vacuum for at least 3 h to remove all traces of chloroform and methanol. The dry lipid film was resuspended in PBS buffer (10 mM phosphate buffer, 2.7 mM KCl, 137 mM NaCl) to a concentration of 1 mg/ml, hydrated for 2 h at 45–55°C, and finally sonicated to produce small unilamellar vesicles. The suspension of small unilamellar vesicles was then kept at 45°C for use on the same day. The sizes of proteoliposomes and liposomes were determined by dynamic light scattering using Nicomp 380 Z3000 instrument (Parficle Sizing Systems, America).
# SPR analyses were performed at 25°C with a Biacore T200 instrument. For proteoliposomes and liposomes (reference), they were immobilized on a series S L1 sensor chips. It is possible that the repeated regeneration steps in the multicycle kinetics process impairs the activity of TSPO proteoliposomes, thus we were unable to use multicycle kinetics to effectively determine the affinity of TSPO and its ligands. Therefore, the single cycle kinetics, which assumes to be as robust as the classical multicycle kinetics for measuring affinity, was used. Kinetic rate constants for the various analytes were determined using single cycle protocols where five serial 2-fold dilutions of the analytes were injected for 180 s without intervening regeneration, followed by a 300 s dissociation phase after the last injection. Interactions were measured at 30 μl/min. PBS, with addition of 1% DMSO (pH 7.4), was used as running buffer. […] For mouse TSPO in a lipid-free environment, affinity was measured according to established methods with minor modifications ([Zhang et al., 2015]). […]
# [2] = target: T2, mouse TSPO recombinant protein (Mus musculus, UniProt P50637); test: SPR multicycle kinetics, mouse TSPO in a lipid-free environment; type: binding; details: CM5 chip, anti-His capture, read-out: affinity to mouse TSPO
# T2 construct: made in house; host or cells: Escherichia coli BL21(DE3) pLysS, pET15b vector
# Experimental: as §1
# SPR analyses were performed at 25°C with a Biacore T200 instrument. For proteoliposomes and liposomes (reference), they were immobilized on a series S L1 sensor chips. It is possible that the repeated regeneration steps in the multicycle kinetics process impairs the activity of TSPO proteoliposomes, thus we were unable to use multicycle kinetics to effectively determine the affinity of TSPO and its ligands. Therefore, the single cycle kinetics, which assumes to be as robust as the classical multicycle kinetics for measuring affinity, was used. Kinetic rate constants for the various analytes were determined using single cycle protocols where five serial 2-fold dilutions of the analytes were injected for 180 s without intervening regeneration, followed by a 300 s dissociation phase after the last injection. Interactions were measured at 30 μl/min. PBS, with addition of 1% DMSO (pH 7.4), was used as running buffer. Three consecutive 1 min injections with 10 μl/min of glycine HCl 3.0 at the end of each single-cycle kinetics regenerated the chip. For mouse TSPO in a lipid-free environment, affinity was measured according to established methods with minor modifications ([Zhang et al., 2015]). Briefly, HBS-EP buffer was used as the running buffer. […]
# [3] = tested on: T98G human glioblastoma cells; test: Cell proliferation assay (BrdU ELISA); type: cell-based; details: 48 h
# Experimental: T98G cells were plated at 1 × 10^4 cells/well in 96-well plates. […] After 48 h of drug exposure, proliferation was indexed using a BrdU ELISA Kit (Roche Molecular Diagnostics) according to the manufacturer’s protocol, and absorption was measured at 370 nm (reference wavelength 492 nm).
# [4] = tested on: T98G human glioblastoma cells; test: Cell viability assay (CellTiter Blue); type: cell-based; details: same dosing regimen as proliferation, 48 h
# Experimental: T98G cells were plated and treated as in the proliferation assays. After 48 h of drug exposure, CellTiter Blue Reagent (Promega) was added to the cells and incubated for 4 h in 5% CO2 at 37°C. Absorption was measured at 570 nm using 600 nm as a reference wavelength.
# [5] = tested on: rat C6 glioma cells; test: Pregnenolone production; type: cell-based; details: 2 h
# [6] = tested on: postoperative pain model of rats; set-up: method as in Xiong et al., 2017; details: ref Xiong et al., 2017, cited from earlier work
# [7] = target: T3, TSPO from rat cerebral cortex (Rattus norvegicus, UniProt P16257); test: 3H-PK11195 saturation binding; details: 0.125–32 nM, 4°C, 2 h
# T3 construct: male SD rats (240 ± 10 g) were killed by decapitation, and the cerebral cortices were dissected; from tissue; host or cells: rat (SD) cerebral cortex, crude mitochondrial/membrane pellet
# Experimental: After incubating at 4°C for 2 h, the reaction was terminated by the addition of ice-cold 50 mM Tris HCl buffer (pH 7.4) followed by vacuum filtration through Filtermat A glass microfiber filters (pretreated with 0.2% polyethylenimine) using a Brandel cell harvester. The filters were washed rapidly, and radioactivity was determined by liquid scintillation spectrometry.
# [8] = target: T3, TSPO from rat cerebral cortex; test: 3H-PK11195 dissociation kinetics; type: binding; details: vehicle; dissociation induced by 10 μM PK11195, 4°C
# Experimental: Briefly, male SD rats (240 ± 10 g) were killed by decapitation, and the cerebral cortices were dissected. The tissues were homogenized in 10 volumes (ml/g) of 50 mM Tris HCl buffer containing 0.32 M sucrose (pH 7.4). The homogenates were centrifuged at 1,000 g for 10 min at 4°C. The resulting pellets were discarded, and the supernatants were centrifuged at 9,000 g for 15 min. The pellets were resuspended in 10 volumes of Tris HCl buffer containing 0.32 M sucrose (pH 7.4) and centrifuged at 13,000 g for 30 min, then resuspended in 10 volumes of Tris HCl buffer and centrifuged again at 13,000 g for 30 min. The final pellets were suspended in Tris HCl buffer and used in the binding assays. Protein concentrations were measured using the BCA Protein Assay Kit (ThermoFisher Scientific) according to the manufacturer’s instructions.
# Then, samples were filtered through Filtermat A glass microfiber filters (pretreated with 0.2% polyethylenimine) using a Brandel cell harvester, and the radioactivities were measured at the indicated time points.
# [9] = target: TSPO; set-up: method as in Awad and Gavish, 1987; Verma et al., 1987; details: radioligand binding experiment results from literatures, ref Awad and Gavish, 1987, Verma et al.; cited from earlier work
# T3 sequence (P16257 whole entry): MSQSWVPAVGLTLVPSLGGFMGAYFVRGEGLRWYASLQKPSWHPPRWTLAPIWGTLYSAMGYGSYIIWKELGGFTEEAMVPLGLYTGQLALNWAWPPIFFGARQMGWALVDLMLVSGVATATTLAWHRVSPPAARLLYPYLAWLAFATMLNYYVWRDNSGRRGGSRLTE
compound,measurement,setting,value
CCC(C)N(C)C(=O)c1cc2ccccc2c(-c2ccccc2Cl)n1 (stereo not drawn) [PK11195],Kd,[1],0.00197 ± 2e-05 µM
same,Kd,[2],161 ± 6.1 µM
same,"EC20 concentration, inhibition of cell proliferation",[3]; BrdU,~75 µM
same,EC50,"[3]; Homo sapiens, T98G, read-out: EC50, inhibition of cell proliferation",81 µM
same,cell viability,[4],not significantly affected
same,"EC20 concentration, pregnenolone production",[5],~27 µM
same,increase in pregnenolone production,[5]; vs vehicle,approximately 50%
same,EC50,"[5]; Rattus norvegicus, C6 glioma, read-out: EC50, pregnenolone production",69 µM
same,analgesic effect,"[6]; 7 μg PK11195 alone, intrathecal",can also produce a certain analgesic effect
same,effect on analgesic effect of intrathecal 200 μg koumine,[6]; intrathecal 0.7 μg PK11195 with 200 μg koumine,weakened the analgesic effect
same,analgesic effect,[6]; intrathecal injection of 0.7 μg PK11195,had no analgesic effect
"CCC(C)N(C)C(=O)c1cc2ccccc2c(-c2ccccc2Cl)n1 (stereo not drawn) [^3H-PK11195, reference compound]",Bmax,[7],143.3 ± 5.4 fmol/mg protein
same,dissociation rate of 3H-PK11195,[8],0.0419 ± 0.0016 min⁻¹
C=CC1=C(C)c2cc3[nH]c(cc4nc(cc5[nH]c(cc1n2)c(C)c5CCC(=O)O)C(CCC(=O)O)=C4C)c(C)c3C=C [protoporphyrin IX],Kd,"[1]; SPR single-cycle kinetics, TSPO proteoliposomes on L1 chip, 25°C, Langmuir 1:1 fit, read-out: KD",0.0126 ± 0.00039 µM
same,Kd,[9],0.0145 ± 0.0107 µM

# Source: paper PMC8264504, “Identification of Koumine as a Translocator Protein 18 kDa Positive Allosteric Modulator for the Treatment of Inflammatory and Neuropathic Pain” (Frontiers in Pharmacology, 2021)
